Measured values as given in patent US10294202B2, “Pyrrolidinones as herbicides” (FMC Corporation, priority 2013, dated 2019).

Columns and labels:
foxtail, giant = assay: Test C pre-/postemergence herbicide test; format: in vivo, Setaria faberii; details: Preemergence; for Foxtail, Giant plant response rating: 31 g ai/ha
Procedure, shortened: (§1)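 Herbicidal effect was judged by eye 13 to 15 days after treatment in the greenhouse, using a 0–100 scale against controls. Chemicals in a non-phytotoxic solvent with surfactant were sprayed onto planted loam/sand soil or onto plants 2 to 18 cm tall in a peat-based growing medium.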

crabgrass, large = assay: Test C pre-/postemergence herbicide test; format: in vivo, Digitaria sanguinalis; details: Preemergence; for Crabgrass, Large plant response rating: 31 g ai/ha
Procedure, shortened: as §1

corn [1] = assay: Test C pre-/postemergence herbicide test; format: in vivo, Zea mays; details: Preemergence; for Corn plant response rating: 31 g ai/ha
Procedure, shortened: as §1

pigweed = assay: Test A pre-/postemergence herbicide test; format: in vivo, Amaranthus retroflexus; details: for Pigweed plant response rating: Preemergence, visual rating on 0 to 100 scale (0 no effect, 100 complete control)
Procedure, shortened: (§2)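 Both application timings used compounds in a non-phytotoxic solvent plus surfactant. Pre-emergence: soil sprayed directly after seeding into loam/sand. Post-emergence: foliage of 2–10 cm seedlings (1–2 leaves) sprayed. Injury rated ~10 days later, 0–100.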

galium = assay: Test C pre-/postemergence herbicide test; format: in vivo, Galium aparine; details: Preemergence; for Galium plant response rating: 31 g ai/ha
Procedure, shortened: as §1

barnyardgrass = assay: Test A pre-/postemergence herbicide test; format: in vivo, Echinochloa crus-galli; details: for Barnyardgrass plant response rating: Preemergence, visual rating on 0 to 100 scale (0 no effect, 100 complete control)
Procedure, shortened: as §2

wheat = assay: Test A pre-/postemergence herbicide test; format: in vivo, Triticum aestivum; details: for Wheat plant response rating: Preemergence, visual rating on 0 to 100 scale (0 no effect, 100 complete control)
Procedure, shortened: as §2

wheat (winter wheat) = assay: Test C pre-/postemergence herbicide test; format: in vivo, Triticum aestivum; details: Preemergence
Procedure, shortened: as §1

morningglory = assay: Test C pre-/postemergence herbicide test; format: in vivo, Ipomoea coccinea; details: Preemergence
Procedure, shortened: as §1

corn [2] = assay: Test A pre-/postemergence herbicide test; format: in vivo, Zea mays; details: for Corn plant response rating: Preemergence, visual rating on 0 to 100 scale (0 no effect, 100 complete control)
Procedure, shortened: as §2

soybean = assay: Test C pre-/postemergence herbicide test; format: in vivo, Glycine max; details: Preemergence
Procedure, shortened: as §1

johnsongrass = assay: Test C pre-/postemergence herbicide test; format: in vivo, Sorghum halepense; details: Preemergence
Procedure, shortened: as §1

ryegrass, Italian = assay: Test C pre-/postemergence herbicide test; format: in vivo, Lolium multiflorum; details: Preemergence
Procedure, shortened: as §1

[3] = scale 0 to 100 (0 no effect, 100 complete control)
[4] = 125 g ai/ha, scale 0 to 100 (0 no effect, 100 complete control)
[5] = 250 g ai/ha, scale 0 to 100 (0 no effect, 100 complete control)
[6] = Postemergence, 125 g ai/ha, 0 to 100 scale, 0 no effect, 100 complete control
[7] = Postemergence, 500 g ai/ha, 0 to 100 scale (0 no effect, 100 complete control)
[8] = preemergence, 500 g ai/ha, 0 to 100 scale
[9] = preemergence, 500 g ai/ha, 0 to 100 scale (0 no effect, 100 complete control)

O=C1NCC(c2ccc3c(c2)OC(F)(F)O3)C1C(=O)Nc1cccc(F)c1F (stereo not drawn) [Compound 62]
Foxtail, Giant plant response rating (foxtail, giant; [3]): 65 | Plant response rating, Foxtail, Giant (foxtail, giant; 62 g ai/ha, scale 0 to 100): 80 | Plant response rating, Foxtail, Giant (foxtail, giant; [4]): 85 | Plant response rating, Foxtail, Giant (foxtail, giant; [5]): 85 | Crabgrass, Large plant response rating (crabgrass, large; [3]): 85 | Plant response rating, Crabgrass, Large (crabgrass, large; 62 g ai/ha, scale 0 to 100): 90 | Plant response rating, Crabgrass, Large (crabgrass, large; [4]): 95 | Plant response rating, Crabgrass, Large (crabgrass, large; [5]): 98 | Corn plant response rating (corn [1]; [3]): 20 | Plant response rating, Corn (corn [1]; 62 g ai/ha, scale 0 to 100): 20 | Plant response rating, Corn (corn [1]; [4]): 30 | Plant response rating, Corn (corn [1]; [5]): 55 | Plant response rating, Pigweed (pigweed; [6]): 30 | Plant response rating, Pigweed (pigweed; [7]): 70 | Pigweed plant response rating (pigweed; 125 g ai/ha): 0 | Plant response rating, Pigweed (pigweed; [8]): 30 | Galium plant response rating (galium; [3]): 0 | Plant response rating, Galium (galium; 62 g ai/ha, scale 0 to 100): 0 | Plant response rating, Galium (galium; [4]): 85 | Plant response rating, Galium (galium; [5]): 90 | Plant response rating, Barnyardgrass (barnyardgrass; [6]): 70 | Plant response rating, Barnyardgrass (barnyardgrass; [7]): 80 | Barnyardgrass plant response rating (barnyardgrass; 125 g ai/ha): 80 | Plant response rating, Barnyardgrass (barnyardgrass; [9]): 80 | Plant response rating, Wheat (wheat; [6]): 20 | Plant response rating, Wheat (wheat; [7]): 60 | Wheat plant response rating (wheat; 125 g ai/ha): 0 | Plant response rating, Wheat (wheat; [8]): 0 | Plant response rating, Wheat (wheat (winter wheat); 62 g ai/ha, scale 0 to 100): 0 | Plant response rating, Wheat (wheat (winter wheat); [4]): 0 | Plant response rating, Morningglory (morningglory; 62 g ai/ha, scale 0 to 100): 10 | Plant response rating, Morningglory (morningglory; [4]): 15 | Plant response rating, Corn (corn [2]; [6]): 40 | Plant response rating, Corn (corn [2]; [7]): 70 | Corn plant response rating (corn [2]; 125 g ai/ha): 0 | Plant response rating, Corn (corn [2]; [8]): 0 | Plant response rating, Soybean (soybean; 62 g ai/ha, scale 0 to 100): 30 | Plant response rating, Soybean (soybean; [4]): 35 | Plant response rating, Johnsongrass (johnsongrass; 62 g ai/ha, scale 0 to 100): 10 | Plant response rating, Johnsongrass (johnsongrass; [4]): 30 | Plant response rating, Ryegrass, Italian (ryegrass, Italian; 62 g ai/ha, scale 0 to 100): 0 | Plant response rating, Ryegrass, Italian (ryegrass, Italian; [4]): 30

O=C1NCC(c2cccc(Br)c2)C1C(=O)Nc1cccc(F)c1F (stereo not drawn) [Compound 64]
Foxtail, Giant plant response rating (foxtail, giant; [3]): 50 | Plant response rating, Foxtail, Giant (foxtail, giant; 62 g ai/ha, scale 0 to 100): 80 | Plant response rating, Foxtail, Giant (foxtail, giant; [4]): 90 | Plant response rating, Foxtail, Giant (foxtail, giant; [5]): 98 | Crabgrass, Large plant response rating (crabgrass, large; [3]): 85 | Plant response rating, Crabgrass, Large (crabgrass, large; 62 g ai/ha, scale 0 to 100): 90 | Plant response rating, Crabgrass, Large (crabgrass, large; [4]): 95 | Plant response rating, Crabgrass, Large (crabgrass, large; [5]): 95 | Corn plant response rating (corn [1]; [3]): 0 | Plant response rating, Corn (corn [1]; 62 g ai/ha, scale 0 to 100): 0 | Plant response rating, Corn (corn [1]; [4]): 55 | Plant response rating, Corn (corn [1]; [5]): 60 | Plant response rating, Pigweed (pigweed; [6]): 0 | Plant response rating, Pigweed (pigweed; [7]): 30 | Pigweed plant response rating (pigweed; 125 g ai/ha): 0 | Plant response rating, Pigweed (pigweed; [8]): 0 | Galium plant response rating (galium; [3]): 0 | Plant response rating, Galium (galium; 62 g ai/ha, scale 0 to 100): 0 | Plant response rating, Galium (galium; [4]): 0 | Plant response rating, Galium (galium; [5]): 0 | Plant response rating, Barnyardgrass (barnyardgrass; [6]): 60 | Plant response rating, Barnyardgrass (barnyardgrass; [7]): 80 | Barnyardgrass plant response rating (barnyardgrass; 125 g ai/ha): 80 | Plant response rating, Barnyardgrass (barnyardgrass; [9]): 90 | Plant response rating, Wheat (wheat; [6]): 0 | Plant response rating, Wheat (wheat; [7]): 40 | Wheat plant response rating (wheat; 125 g ai/ha): 0 | Plant response rating, Wheat (wheat; [8]): 0 | Plant response rating, Wheat (wheat (winter wheat); 62 g ai/ha, scale 0 to 100): 5 | Plant response rating, Wheat (wheat (winter wheat); [4]): 15 | Plant response rating, Morningglory (morningglory; 62 g ai/ha, scale 0 to 100): 20 | Plant response rating, Morningglory (morningglory; [4]): 20 | Plant response rating, Corn (corn [2]; [6]): 30 | Plant response rating, Corn (corn [2]; [7]): 40 | Corn plant response rating (corn [2]; 125 g ai/ha): 20 | Plant response rating, Corn (corn [2]; [8]): 20 | Plant response rating, Soybean (soybean; 62 g ai/ha, scale 0 to 100): 35 | Plant response rating, Soybean (soybean; [4]): 40 | Plant response rating, Johnsongrass (johnsongrass; 62 g ai/ha, scale 0 to 100): 40 | Plant response rating, Johnsongrass (johnsongrass; [4]): 75 | Plant response rating, Ryegrass, Italian (ryegrass, Italian; 62 g ai/ha, scale 0 to 100): 0 | Plant response rating, Ryegrass, Italian (ryegrass, Italian; [4]): 0
